According to paper PMC11201866, “Antiproliferative effect of indeno[1,2-d]thiazolo[3,2-a]pyrimidine analogues on IL-6 mediated STAT3 and role of the apoptotic pathway in albino Wistar rats of ethyl carbamate-induced lung carcinoma: In-silico, In-vitro, and In-vivo study” (Cancer Cell International, 2024):
Where two headings read alike, the source gives them in different places.

How the values were obtained:
[1] = system: Human Lung Cancer Cell Line A-549; assay: In-vitro cell cytotoxicity (SRB) assay; type: cell-based
Procedure: To determine the cytotoxicity potential of the synthesized compounds. All samples were sent to the ACTREC, Tata Memorial Centre, Mumbai, India. They followed the standard protocol for sample analysis of the synthesized compounds. Adriamycin (ADR) was selected as a standard at 10, 20, 40, and 80 µg/mL to screen for indeno [1, 2-d] thiazolo [3,2-a] pyrimidine analogues. GI50 growth inhibition of 50% was calculated using the [(Ti − Tz)/(C − Tz)] ×100% formula, where C, controlled growth; Tz, time zero growth; and Ti, test growth at four concentration levels in the presence of the drug.
LC50 = Concentration of drug causing 50% cell kill
TGI = Concentration of drug causing total inhibition of cell growth
GI50 = Concentration of drug causing 50% inhibition of cell growth

[2] = system: ethyl-carbamate (EC)- induced LC; assay: In-vivo antineoplastic study, EC-induced lung carcinoma (weight, lipid profile, oxidative markers, histopathology, SEM); parameters: species or system albino Wistar rats; settings: EC-induced LC rats; for Histopathological analysis of lung tissue (H&E): 10 mg/kg for 15 days; for Weight variation (change in body weight): 10 mg/kg for 15 days (9B, 12B p.o.; 5-FU i.p.); for Serum lipid profile (TC, TG, LDL, VLDL, HDL) / Oxidative changes (SOD, GSH, ProC, TBARs): 10 mg/kg p.o. for 15 days; for Oxidative changes (SOD, GSH, ProC, TBARs): lung tissue homogenate
Procedure: (§1) Six-week-old experimental male albino Wistar rats (100–120 g) were procured from the animal house facility of Babu Banarasi Das Northern India Institute of Technology Lucknow and approved by the Institutional Animal Ethical Committee (CPCSEA No. 809/PO/Re/S/03/CPCSEA) with approval no. BBDNIIT/IAEC/APR/2022/06. The animal welfare protocol and experiments were performed as per the CPCSEA guidelines for laboratory animals and ethics, Department of Animal Welfare, Government of India. They were randomly distributed into five groups of eight animals each. The experimental rats were acclimated under standard research laboratory conditions with free access to standard rat chow and water ad libitum. Group 1 (NC, normal control group): 0.25% CMC (2 mL/kg, p. o.), Group 2 (CC, carcinogen control/EC-exposed group): EC (0.375 mg/kg, four i.p. injections within a gap of three weeks between each dose over twelve weeks period), Group 3 (PC, positive control group): EC + 5-FU (10 mg/kg, i.p. for 15 days after EC induced LC), Group 4 (9B): EC + Compound 9B (10 mg/kg, p.o. for 15 days after EC induced LC), and Group 5 (12B): EC + Compound 12B (10 mg/kg, p.o. for 15 days after the induction of LC). At the end of the treatment, the animals were euthanized by cervical decapitation after anesthesia using a combination of diazepam and ketamine hydrochloride (5 mg/kg, and 100 mg/kg, i.m. respectively). The lung was excised immediately, rinsed in ice-cold saline, and stored at -80 °C for further study. Serum was collected and stored for further analysis.
Change in body weight (gm) was measured on the initial and final day of the experiment, and percent (%) weight gain/loss was calculated.
Serum total cholesterol (TC), triglycerides (TG), and high-density lipoprotein (HDL) levels were measured by using lipid profile kits (Agappe Diagnostic Ltd., Kerala, India). In brief, the assay was performed according to the manufacturer’s instructions. Low-density lipoprotein (LDL) and very-low-density lipoprotein (VLDL) levels were estimated and calculated using Friedewald’s formula [24].
Biochemical parameters such as protein carbonyl (PC), superoxide dismutase (SOD), glutathione (GSH), and thiobarbituric acid reactive substances (TBARs) were estimated in 10% lung tissue homogenate using our previously standardized laboratory protocols.
Histopathological studies were conducted to determine intracellular changes in lung tissue. Tissue samples were stained with H&E (haemotoxyline and eosin) using a methodology established previously at our laboratory for histological analysis and observed under an optical microscope (Steindroff N-120, 40X).
Lung tissue samples of 2–4 mm thickness were sectioned, and the samples were prepared by fixation, washing, post-fixation, and dehydration according to the standardized procedures of our laboratory. Finally, the samples were mounted on aluminium stubs with adhesive tape and examined for morphological changes using SEM (JEOL JSM-6490LV).

[3] = system: IL-2, IL-6, IL-10, and IL-1β; assay: Cytokine estimation (ELISA) in EC-induced LC rats; type: in vivo, albino Wistar rats; settings: 10 mg/kg p.o. for 15 days, vs CC group
Procedure: as §1, with “The lung was excised immediately, rinsed in ice-cold saline, and stored at -80 °C for further study. Serum was collected and stored for further analysis.” left out

albino Wistar rats = assay: Acute toxicity study (OECD 423); type: in vivo; settings: oral, 15 days, 5, 10, and 15 mg/kg; for Toxic effect: histology of lung, liver, kidney
Procedure: It is necessary to investigate the safety and efficacy of the synthesized compounds in vivo, which was performed as per the guidelines of the Organization for Economic Cooperation and Development guidelines 423 (OECD 423). The synthesized compounds were orally administered at doses of 5, 10, and 15 mg/kg body weight to albino Wistar rats for 15 days (n = 5), and the animals were observed every day for any toxic signs at various doses. Morphological and oxidative stress parameters were used to determine dose-related toxicity.

[4] = Pharmacokinetic study in rat plasma using HPLC; type: in vivo, albino Wistar rats; settings: 10 mg/kg p.o.; for AUC(0-inf) / Cmax / MRT / Tmax / half-life: Wistar, po; for AUC(0-inf) / Cmax / MRT / Tmax / half-life / AUMC: rat plasma
Procedure: 9B and 12B compounds were orally administered at 10 mg/kg (p.o. dose obtained from acute toxicity studies) to rats, and blood was collected from the latetal tail vein at 0.083, 0.25, 0.5, 1, 2, 4, 8, 12, 16, 24, and 48 h. After collection, blood was centrifuged and plasma was separated, which was kept at -20 °C for further HPLC determination. Chromatographic separations were performed using a Shimadzu Prominence-I LC-2030 Plus equipped with HPLC and a photodiode array (PDA) detector. The mobile phase consisted of a gradient elution of 2:8, water: methanol, and a continuous flow rate of 1 mL/min in an RP-C18 column (5.0 µ particle sizes, 4.6 mm internal diameter, and 250 mm length) with different λmax of 310 and 320 nm, respectively, at 40 °C throughout the experiment. The column was washed using an elution solvent (water: methanol = 50:50) after each run, and the final output was analyzed using WinNonlin version 1.5.3 software.

[5] = system: IL-6, STAT-3, Bax, Bcl-2, Cyt-C, Caspase-9, and Caspase-3; assay: Western blot analysis of lung samples of EC-induced LC rats; type: in vivo, albino Wistar rats; settings: 10 mg/kg p.o. for 15 days; for Expression of IL-6, STAT-3, and Bcl-2 / Expression of caspases (Caspase-3 and Caspase-9): vs CC group
Procedure: as §1
Protein expression levels of IL-6 (pro-inflammatory), STAT-3 (pro-inflammatory), Bax (pro-apoptotic), Bcl-2 (anti-apoptotic), Cyt-C (pro-apoptotic), Caspase-9, and Caspase-3 (pro-apoptotic/executor caspase) were assessed by immunoblotting. Proteins were electrophoresed on sodium dodecyl sulphate polyacrylamide gel (SDS-PAGE) and probed to detect molecules of interest in the mixture. The membrane was developed with enhanced chemiluminescence ECL, and images were obtained using Chemidoc XRS+ (Bio-rad).

[6] = Homo sapiens, A549 cell line, unit inferred, read-out: GI50 value

SMILES	Histopathological analysis of lung tissue (H&E) [2]	Weight variation (change in body weight) [2] [gm]	Serum lipid profile (TC, TG, LDL, VLDL, HDL) [2]	Oxidative changes (SOD, GSH, ProC, TBARs) [2]	Levels of cytokine IL-1β, IL-2, IL-6, and IL-10 [3]	Antioxidant markers SOD, CAT, GSH, and TBARs values (albino Wistar rats)	Toxic effect (albino Wistar rats)	AUC(0-inf) [4] [µg·h/mL]	Cmax [4] [ng/mL]	MRT [4] [h]	Tmax [4] [h]	half-life [4] [h]	AUMC [4] [µg.h^2/ mL]	GI50 [1, 6] [µg/mL]	Expression of IL-6, STAT-3, and Bcl-2 [5]	Expression of caspases (Caspase-3 and Caspase-9) [5]	also measured
COc1cccc2c1C(=O)c1c(O)c3c(c(O)c1C2=O)C[C@@](O)(C(=O)CO)C[C@@H]3O[C@H]1C[C@H](N)[C@H](O)[C@H](C)O1 [ADR, Adriamycin, reference compound]																	TGI (concentration of drug causing total inhibition of cell growth) ([1]; A-549 cells, SRB assay): <10 µg/mL; GI50 ([1]; Homo sapiens, A549, A-549 cells, SRB assay, read-out: GI50 (concentration of drug causing 50% inhibition of cell growth)): < 10 µg/mL
O=c1[nH]cc(F)c(=O)[nH]1 [Compound 5-FU, 5-Fluorouracil, reference compound]	histopathological recovery of lung tissue architectures	7.21 ± 1.75															
COc1ccc2c(c1)CC1=C2N=C2SC=CN2C1c1cc(OC)c(OC)c(OC)c1 (stereo not drawn) [Compound 9B, 8-methoxy-5-(3,4,5-trimethoxyphenyl)-5,6-dihydroindeno[1,2-d]thiazolo[3,2-a]pyrimidine]	histopathological recovery of lung tissue architectures	6.01 ± 1.08	restored the alteration of the lipid profile	restoring the altered levels of SOD, GSH, ProC, and TBARs	significantly decreased	no change	no toxic effect	288	30800 ± 1590	10.6 ± 0.99	4	7.95	3028.82	< 20	decreased	increased	LC50 ([1]; Homo sapiens, A549, A-549 cells, SRB assay, read-out: LC50 (concentration of drug causing 50% cell kill)): > 80 µg/mL
Clc1ccc(C2C3=C(N=C4SC=CN42)c2ccccc2C3)cc1 (stereo not drawn) [Compound 12B, 5-(4-chlorophenyl)-5,6-dihydroindeno[1,2-d]thiazolo[3,2-a]pyrimidine]	histopathological recovery of lung tissue architectures	17.52 ± 1.33	restored the alteration of the lipid profile	restoring the altered levels of SOD, GSH, ProC, and TBARs	significantly decreased	no change	no toxic effect	436 ± 8.59	40200 ± 2060	10.4 ± 1.08	4	11.5	4557.60	< 10	decreased	increased	Biological availability (in words) ([4]; rat, compared with 9B): good biological availability as compared to 9B; Expression of Bax and Cyt-C ([5]; 12B compared with 9B): higher expression with 12B treatment than with 9B treatment
